Experimental data: US20240082211A1, “SOLUBLE EPOXIDE HYDROLASE AS A TARGET FOR OCULAR DISEASES” (Indiana University Research and Technology Corporation, priority 2017, published 2024)

Assays:
[1] = system: sEH; assay: Lipid profiling of retina/choroid in L-CNV mice (19,20-EDP/DHDP ratio as sEH activity in vivo); design: species or system mouse; conditions: 10 μM intravitreal, 3 days post-laser, vs vehicle treated controls
Method: The L-CNV mouse model and injections were performed as previously described. […] Compounds where indicated were injected a single time immediately post-laser treatment, delivered intravitreally using a 33-gauge needle, in a 0.5 μL volume. […] Vehicle alone (PBS+0.5% (v/v) DMSO) was used as negative control. […] Eyes were numbed with tetracaine solution before the injection, and triple antibiotic ointment was used immediately after the injection to prevent infection. Lipid Profiling
Mice were sacrificed 3 days post-laser-treatment, eyes were enucleated and retina/choroid layers were immediately separated and stored at −80° C.

[2] = system: choroidal neovascularization; conditions: cited from earlier work
[3] = target: T1, human sEH (Homo sapiens, UniProt P34913); assay: sEH enzyme kinetics (PHOME hydrolysis, Michaelis-Menten/Dixon analysis); type: biochemical; conditions: for type of inhibition of sEH: Lineweaver-Burk and Dixon plots; for Ki: human sEH, PHOME
T1 construct: purchased Cayman Chemical
T1 sequence (P34913 1-555): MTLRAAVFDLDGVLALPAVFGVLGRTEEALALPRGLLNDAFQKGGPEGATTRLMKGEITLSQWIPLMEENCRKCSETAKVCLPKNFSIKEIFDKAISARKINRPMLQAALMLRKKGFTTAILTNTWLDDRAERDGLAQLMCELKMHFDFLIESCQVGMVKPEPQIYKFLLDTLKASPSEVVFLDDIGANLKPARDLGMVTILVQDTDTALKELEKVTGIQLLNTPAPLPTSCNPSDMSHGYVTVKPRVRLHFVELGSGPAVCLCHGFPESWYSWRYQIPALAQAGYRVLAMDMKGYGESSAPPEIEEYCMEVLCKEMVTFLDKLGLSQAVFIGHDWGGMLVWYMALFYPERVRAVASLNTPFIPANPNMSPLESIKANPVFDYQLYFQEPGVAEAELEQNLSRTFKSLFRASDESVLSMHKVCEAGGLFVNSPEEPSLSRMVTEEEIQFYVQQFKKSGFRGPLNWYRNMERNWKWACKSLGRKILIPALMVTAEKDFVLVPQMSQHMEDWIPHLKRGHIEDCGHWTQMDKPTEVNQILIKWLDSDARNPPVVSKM
Method: Various concentrations of compound dissolved in DMSO (final DMSO concentration=5% (v/v)) and human sEH (60 ng/mL final concentration; Cayman Chemical) in 25 mM bis-Tris-HCl buffer containing 0.1% (w/v) BSA were mixed in a 96 well plate. PHOME at indicated concentrations was added to the wells to initiate the reaction and fluorescence was read with an excitation wavelength of 330 nm and emission wavelength of 465 nm. The standard curve plotted from dilutions of the product, 6-methoxy-2-naphthaldehyde, was used to convert fluorescence reading (RFU/min) to sEH activity (nmol product formed/min). The reaction rate was obtained from the slope of the line from time=5 to 15 minutes for each substrate concentration, and analyzed using GraphPad Prism 7 and SigmaPlot 13.0 to determine Michaelis-Menten kinetic parameters.

[4] = target: T2, sEH activity in L-CNV eye tissue homogenates (Mus musculus, UniProt P34914); assay: Tissue-based sEH activity assay using trans-stilbene oxide; type: biochemical; conditions: 20 μM, 3 days post-laser-treatment, trans-stilbene oxide substrate
T2 construct: from tissue; host or cells: mouse eye homogenate (C57BL/6J, L-CNV), 100,000 x g supernatant
T2 sequence (P34914 1-554): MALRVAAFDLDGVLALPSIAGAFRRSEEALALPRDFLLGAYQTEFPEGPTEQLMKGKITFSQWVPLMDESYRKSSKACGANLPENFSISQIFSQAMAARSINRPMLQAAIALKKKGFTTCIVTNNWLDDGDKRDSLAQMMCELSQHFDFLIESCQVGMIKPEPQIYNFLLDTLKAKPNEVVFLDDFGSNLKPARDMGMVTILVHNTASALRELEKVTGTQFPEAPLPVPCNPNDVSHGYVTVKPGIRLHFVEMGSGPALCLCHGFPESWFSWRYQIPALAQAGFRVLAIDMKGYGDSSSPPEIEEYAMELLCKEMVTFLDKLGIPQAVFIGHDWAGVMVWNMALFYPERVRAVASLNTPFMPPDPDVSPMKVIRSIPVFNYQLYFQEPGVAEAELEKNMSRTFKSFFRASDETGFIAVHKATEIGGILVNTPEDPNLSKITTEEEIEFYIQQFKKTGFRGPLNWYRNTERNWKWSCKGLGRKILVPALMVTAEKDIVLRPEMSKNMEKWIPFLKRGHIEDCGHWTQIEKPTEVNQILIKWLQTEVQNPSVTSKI
Method: The sEH activity in tissue homogenates was assayed using trans-stilbene oxide (t-SO) as substrate. The assay is based on the hydrolysis of t-SO that is tracked as a decrease in the absorbance at 230 nm. L-CNV was induced as described above. After 3 days, enucleated eyes from both untreated and L-CNV mice were homogenized in 0.2 M sodium phosphate buffer, pH 7.4. To remove microsomal epoxide hydrolase and lenses, tissue extracts were centrifuged at 100,000×g for 30 minutes at 4° C. After protein estimation, 100 μL of tissue homogenates (100 μg/mL) and 98 μL of SH-11037 or 7 dissolved in DMSO/buffer (final 1% (v/v) DMSO) were added to a UV-transparent 96-well plate. After 5 minutes' incubation at room temperature, 2 μL of t-SO in ethanol (100 μM final concentration) was added to assay wells to initiate the reaction. The absorbance was read at 230 nm for 20 minutes. sEH activity was determined as follows:
sEH Activity=[(A0−A20)−(B0−B20)]/mg of protein in a reaction
Where A0 and A20 are absorbance of test wells read at 230 nm at time 0 and 20 minutes respectively, and B0 and B20 are absorbance of background wells read at 230 nm at time 0 and 20 minutes.

[5] = target: T3, soluble epoxide hydrolase (sEH) (Homo sapiens, UniProt P34913); assay: Recombinant soluble epoxide hydrolase activity assay (fluorogenic substrate PHOME)
T3 sequence (P34913 1-555): T1 sequence (P34913 1-555)
Method: Compounds were dissolved in DMSO (final DMSO concentration=5% (v/v)). Activity was calculated according to:
% Initial Activity=[(FI15−FI0)/(FT15−FT0)]×100%
where FI is the background corrected fluorescence signal obtained in the presence of an inhibitor and FT is the background corrected fluorescence signal obtained for the total activity at times 0 and 15 minutes. IC50 values were calculated using GraphPad Prism v.

[6] = system: choroidal neovascularization; assay: Laser-induced choroidal neovascularization (L-CNV) mouse model, CNV lesion volume; type: in vivo; conditions: single intravitreal injection, 14 days post-laser, vs vehicle
[7] = system: mouse choroidal sprouting; assay: Choroidal sprouting assay (ex vivo); type: cell-based; conditions: 0.1, 1, 10 μM, 48 hours, vs vehicle
Method: Benzisoxazole sEH inhibitor 7 was synthesized according to the method as described in Shen et al., Bioorg. […] Sprouting of endothelial cells from choroidal layers was tested as described in Sulaiman et al., Sci. Rep. […] The final concentration of DMSO in each well was 0.2% (v/v). Images were taken using an EVOS-fl digital microscope (AMG, Mill Creek, WA, USA) and data were analyzed as the sprouting distance in four different directions using ImageJ software v.1.48v (http://imagej.nih.gov/ij/).

| SMILES | ratio of 19,20-EDP to 19,20-DHDP in retina/choroid [1] | combination with anti-VEGF antibody in L-CNV ([2]; WO 2017/091473) | effective doses in L-CNV, intravitreal ([2]; previously shown (Sulaiman et al. 2016; WO 2017/091473)) | type of inhibition of sEH [3] | Ki [3] | sEH activity in L-CNV eye lysates [4] | IC50 [5] | Ki ([3]; Dixon plot, n=3) | CNV lesion vascular volume [6] | ability of choroidal tissues to form sprouts [7] |
| --- | --- | --- | --- | --- | --- | --- | --- | --- | --- | --- |
| COc1ccc(CC2COc3cc(OC)c(OC)c(OC)c3C2=O)cc1OC(=O)[C@H](Cc1ccccc1)NC(=O)OC(C)(C)C (stereo partly drawn) [SH-11037, (2S)-2-methoxy-5-((5,6,7-trimethoxy-4-oxochroman-3-yl)methyl)phenyl 2-((tert-butoxycarbonyl)amino)-3-phenylpropanoate] | partially normalized | synergize | > 1 µM | mixed-type inhibitor | 1730 ± 450 nM | normalized | 150 nM |  |  |  |
| FC(F)(F)c1ccc(Nc2noc3c(C(F)(F)F)cccc23)cc1 [compound 7, 7-(trifluoromethyl)-N-(4-(trifluoromethyl)phenyl) benzo[d]isoxazol-3-amine, reference compound] |  |  |  | mixed-type inhibitor |  | normalized | 9.5 nM | 19.6 nM | dose-dependently suppressed | suppressed |
